In US20130011378A1, “Stable formulations of a hyaluronan-degrading enzyme” (priority 2011, published 2013):
Read-outs that look alike come from different tables or passages of the source.

Assays:
rHuPH20 [1] = molecular target: T1, rHuPH20 (Homo sapiens, UniProt P38567); assay: Determination of hyaluronidase activity of rHuPH20, turbidimetric assay (Example 2, variant not specified); type: biochemical; details: for Effect on rHuPH20 enzymatic activity: stabilizer screening in rHuPH20/insulin formulation, semi-quantitative in comparison with NaCl, samples incubated at 30° C. for about one week; for rHuPH20 enzymatic activity: 30° C. for one month, starting 650 U/mL
T1 construct: made in house; host or cells: CHO cells (DG44 CHO, HZ24 plasmid, clone 2B2)
T1 sequence (P38567 36-482): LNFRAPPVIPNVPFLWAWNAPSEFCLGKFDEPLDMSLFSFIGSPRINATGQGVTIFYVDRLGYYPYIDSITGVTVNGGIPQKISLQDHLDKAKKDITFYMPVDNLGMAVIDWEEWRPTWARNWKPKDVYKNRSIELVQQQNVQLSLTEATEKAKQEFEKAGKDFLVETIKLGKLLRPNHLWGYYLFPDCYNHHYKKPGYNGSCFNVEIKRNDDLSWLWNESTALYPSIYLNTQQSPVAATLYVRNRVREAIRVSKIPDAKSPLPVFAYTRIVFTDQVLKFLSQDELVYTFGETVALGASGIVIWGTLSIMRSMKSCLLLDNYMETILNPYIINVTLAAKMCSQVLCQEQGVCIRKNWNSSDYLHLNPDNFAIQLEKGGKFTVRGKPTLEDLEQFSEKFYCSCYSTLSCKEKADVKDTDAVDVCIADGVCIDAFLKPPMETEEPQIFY

[2] = RP-HPLC: insulin apparent solubility / percent recovery
Experimental: Apparent solubility was measured as the percent insulin recovery as compared to the initial formulations/conditions.
Samples were prepared by withdrawing 100 μL from each vial at every time point and centrifuging prior to loading. Samples were stored in an autosampler at 4° C. prior to use, and were considered stable for 3 days after preparation. All samples were tested in duplicate.
For insulin, 20 μL was injected for each HPLC run.
To determine the apparent solubility, the peak area of insulin/insulin analog main peak and desamido peak were integrated and combined together to calculate the percentage relative to the standards. […] The data were processed using Design-Expert® 7.0 (StatEase) and the “historical data” feature. Insulin percent purity was expressed as the percent of main insulin versus all insulin species.

[3] = reported; cited from earlier work
rHuPH20 [4] = molecular target: T1, rHuPH20; assay: RP-HPLC: rHuPH20 oxidation peaks (ox-1, ox-2); type: physicochemical; details: 30° C.; for % of Oxidation Peak 1 of rHuPH20: 0.02% surfactant, 72 hours
From the text: The stability of hyaluronan degrading enzymes in a composition, such as in the co-formulations provided herein, also can be assessed using other methods and assays known in the art. […] Percent recovery is the relative percentage of the hyaluronidase in the co-formulation over time and at various storage conditions, as compared to a reference sample. […] An increase in particle size and a decrease in the melting temperature indicates denaturation and subsequent aggregation of the hyaluronidase. […] Other methods known to one of skill in the art that can be used to determine the stability of the hyaluronidase in the co-formulations provided herein, include polyacrylamide gel electrophoresis (PAGE), immunoblotting, nuclear magnetic resonance (NMR) spectroscopy, mass spectrometry, circular dichroism (CD) and dye-based fluorescence assays.
The formulations varied in the surfactant and surfactant concentration and the buffer (either histidine or phosphate).
Methionine oxidation can be prevented by addition of free methionine as a scavenger to react with potential oxidative compounds.

[5] = test system: Aspergillus niger, Pseudomonas aeruginosa, E. coli, Staphylococcus aureus and Candida albicans; assay: Antimicrobial (preservative) effectiveness test, USP / EPA / EPB criteria; type: cell-based
From the text: One of skill in the art is familiar with the antimicrobial preservative effectiveness test and standards to be meet under the USP and EPA or EPB in order to meet minimum requirements. […] The preservative properties of the composition are deemed adequate if, under the conditions of the test, there is a significant fall or no increase, as specified in Table 6, below, in the number of microorganisms in the inoculated composition after the times and at the temperatures prescribed. The criteria for evaluation are given in terms of the log reduction in the number of viable microorganism as compared to the initial sample or the previous timepoint.
The number of viable microorganisms (cfu) in each sample is determined by plate count or membrane filtration. Finally, the cfu for each sample is compared to either the inoculum or the previous sample and log reduction is determined.
The tests were performed according to the guidance of EP and USP by a contract analytical laboratory (Quadrants Scientific, Inc., San Diego, Calif.). […] Raw data (CFU/mL) was converted to a log 10 unit reduction from the measured inoculum. […]
The tests were performed according to the guidance of EP and USP by a contract analytical laboratory (Quadrants Scientific, Inc., San Diego, Calif. and Lancaster Laboratories, Lancaster, Pa.). […] Raw data (CFU/mL) was converted to a log 10 unit reduction from the measured inoculum. […]

[6] = Lysyl lysine as buffer: titration curve and effect of temperature on pH; type: physicochemical; details: rHuPH20/insulin glulisine formulations, 30-105 mM lysyl lysine
[7] = stabilizer screening in rHuPH20/insulin formulation, semi-quantitative in comparison with NaCl, RP-HPLC, samples stored at 5° C.

Compound	Effect on rHuPH20 enzymatic activity (rHuPH20 [1])	Effect on insulin solubility [2, 7]	% of Oxidation Peak 1 of rHuPH20 (rHuPH20 [4]; Methionine 0 mM) [%]	% of Oxidation Peak 1 of rHuPH20 (rHuPH20 [4]; Methionine 2 mM) [%]	% of Oxidation Peak 1 of rHuPH20 (rHuPH20 [4]; Methionine 10 mM) [%]	% of Oxidation Peak 1 of rHuPH20 (rHuPH20 [4]; Methionine 50 mM) [%]	also measured
NC(CO)(CO)CO [Tris]	No effect	–	–	–	–	–	Effect on insulin solubility [2]: No effect; temperature effect (dpH/dT) [3]: −0.028 U/° C.
CSCC[C@H](N)C(=O)O [methionine]	No effect	No effect	–	–	–	–	rHuPH20 enzymatic activity (rHuPH20 [1]; 1 mM methionine): 525 U/mL; rHuPH20 enzymatic activity (rHuPH20 [1]; 20 mM methionine): 522 U/mL; ox-1 peak of rHuPH20 compared to formulations without methionine (rHuPH20 [4]; 40 mM methionine, rHuPH20/insulin formulation, 5 weeks): significantly smaller; Effect on antimicrobial effectiveness ([5]; component concentration (50-100 mM), formulations with 100 U/mL insulin or analog and 5 μg/mL rHuPH20): Neutral
[Cl-].[Na+] [NaCl]	–	–	–	–	–	–	Effect on antimicrobial effectiveness ([5]; component concentration (80-100 mM)): Neutral
Polysorbate 20	–	–	4.01	3.43	3.37	3.38	–
Cl.Cl.NCCCCC(N)C(=O)NC(CCCCN)C(=O)O (centres unmarked) [Lys-Lys, Lys-Lys dihydrochloride]	Strong stabilizer	Reduced solubility	–	–	–	–	effect on rHuPH20 stability in comparison with NaCl (rHuPH20 [1]; stabilizer screening, 30° C. about one week, […] m-cresol, 0.2% phenol): stabilized rHuPH20 more than NaCl; Effect on insulin solubility ([2]; stabilizer screening, samples stored at 5° C.): caused severe precipitation of insulin; temperature effect (dpH/dT) [6]: −0.033 U/° C.
Polysorbate 80	–	–	4.01	3.50	3.44	3.34	–
